Data reported in ChEMBL document CHEMBL1201862, “PubChem BioAssay data set” (2004).
The source made the active and inactive calls. Cut-off read from the data, not from the text of the source: actives have a measured IC50 and inactives only a lower limit.

Target: Envelope glycoprotein gp160 (Human immunodeficiency virus 1, UniProt Q6QLK5)
Assay: inhibitors of HIV fusion peptide binding, primary screen, biochemical, uHTS, fluorescence dequenching (AID 1986)

Sequence of Envelope glycoprotein gp160 (Q6QLK5 whole entry, the tested form may be a part): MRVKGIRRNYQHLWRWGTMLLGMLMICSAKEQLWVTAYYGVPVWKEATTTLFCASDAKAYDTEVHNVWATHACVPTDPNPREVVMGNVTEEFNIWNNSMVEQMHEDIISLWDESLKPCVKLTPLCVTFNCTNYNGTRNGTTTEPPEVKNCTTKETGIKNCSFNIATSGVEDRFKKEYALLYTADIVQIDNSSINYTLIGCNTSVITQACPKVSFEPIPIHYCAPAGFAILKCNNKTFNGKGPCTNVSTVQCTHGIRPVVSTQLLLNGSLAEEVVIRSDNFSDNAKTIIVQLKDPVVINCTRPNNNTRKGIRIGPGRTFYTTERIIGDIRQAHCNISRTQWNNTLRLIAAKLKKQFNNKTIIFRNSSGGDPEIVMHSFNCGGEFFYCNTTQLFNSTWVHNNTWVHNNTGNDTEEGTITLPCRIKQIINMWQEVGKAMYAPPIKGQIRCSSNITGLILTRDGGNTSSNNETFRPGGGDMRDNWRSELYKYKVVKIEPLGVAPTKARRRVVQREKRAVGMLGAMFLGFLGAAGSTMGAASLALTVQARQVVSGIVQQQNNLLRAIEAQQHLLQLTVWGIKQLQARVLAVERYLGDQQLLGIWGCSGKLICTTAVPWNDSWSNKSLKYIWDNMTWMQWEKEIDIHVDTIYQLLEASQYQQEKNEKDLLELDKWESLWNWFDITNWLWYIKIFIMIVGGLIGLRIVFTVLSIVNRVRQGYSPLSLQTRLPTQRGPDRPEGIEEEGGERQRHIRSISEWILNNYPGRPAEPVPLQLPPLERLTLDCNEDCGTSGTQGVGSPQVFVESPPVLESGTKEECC

**Q.** Cc1ccc2nc(N3C(=O)C(O)=C(C(=O)c4ccco4)C3c3cccc(O)c3)sc2c1 (stereo not drawn) was tested. Which IC50 did it give?
**A.** 16.9 µM (active)

**Q.** For CC1(C)CC(=O)C2=C(C1)c1c(ccc3ccccc13)NC2c1cc([N+](=O)[O-])cc([N+](=O)[O-])c1O (stereo not drawn), which IC50 is on record?
**A.** 9.83 µM (active)

**Q.** For CC(C)COc1ccc(-c2nn(-c3ccccc3)cc2/C=C2/SC(=S)N(CC(=O)O)C2=O)cc1, which IC50 is on record?
**A.** 8.09 µM (active)
